Results reported in PubChem BioAssay AID1963964 (Molecular Pharmacology Branch, DTP, NCI, 2024).

Test system: 997726-040-R-J2-PDC tumor spheroids, viability
Experiment: Anticancer human tumor 997726-040-R-J2-PDC patient-derived squamous cell lung carcinoma cell line growth inhibition [PI3K]
Details: spheroids with HUVEC and MSC; for IC50: curve of first compound; for viability, T/C: stronger effect = lower value; active = viability on the fitted dose curve at most 10% of control; inactive = the rest
Method in brief: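 Complex 3D spheroids (cancer cells + endothelial HUVEC + mesenchymal stem cells); drug pairs of targeted agent x inavolisib/alpelisib/duvelisib/copanlisib; half-log series from ~Cmax, max 10 microM if Cmax unknown; endpoint viability.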

[1] = second compound 0.0316 µM, first compound 0.0316 µM
[2] = second compound 0.0316 µM, first compound 0.1 µM
[3] = second compound 0.0316 µM, first compound 0.316 µM
[4] = second compound 0.0316 µM, first compound 1 µM
[5] = second compound 0.0316 µM, first compound 3.16 µM
[6] = second compound 0.0316 µM, first compound 10 µM
[7] = second compound 0.1 µM, first compound 0.0316 µM
[8] = second compound 0.1 µM, first compound 0.1 µM
[9] = second compound 0.1 µM, first compound 0.316 µM
[10] = second compound 0.1 µM, first compound 1 µM
[11] = second compound 0.1 µM, first compound 3.16 µM
[12] = second compound 0.1 µM, first compound 10 µM
[13] = second compound 0.316 µM, first compound 0.0316 µM
[14] = second compound 0.316 µM, first compound 0.1 µM
[15] = second compound 0.316 µM, first compound 0.316 µM
[16] = second compound 0.316 µM, first compound 1 µM
[17] = second compound 0.316 µM, first compound 3.16 µM
[18] = second compound 0.316 µM, first compound 10 µM
[19] = second compound 1 µM, first compound 0.0316 µM
[20] = second compound 1 µM, first compound 0.1 µM
[21] = second compound 1 µM, first compound 0.316 µM
[22] = second compound 1 µM, first compound 1 µM
[23] = second compound 1 µM, first compound 3.16 µM
[24] = second compound 1 µM, first compound 10 µM
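Note: spheroids exposed to compounds for seven days before readout.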

CNC(=O)c1ccc(N2C(=S)N(c3ccc(C#N)c(C(F)(F)F)c3)C(=O)C2(C)C)cc1F + CC(Nc1ccc2c(c1)OCCn1cc(N3C(=O)OCC3C(F)F)nc1-2)C(N)=O
> 10000 nM: IC50 (second compound 0.00316 µM) | IC50 (second compound 0.01 µM) | IC50 (second compound 0.0316 µM)
< 31.6 nM: IC50 (second compound 0.1 µM) | IC50 (second compound 0.316 µM) | IC50 (second compound 1 µM)
inactive: viability, T/C (second compound 0.00316 µM, first compound 0.0316 µM) 82.6% | viability, T/C (second compound 0.00316 µM, first compound 0.1 µM) 86.7% | viability, T/C (second compound 0.00316 µM, first compound 0.316 µM) 89% | viability, T/C (second compound 0.00316 µM, first compound 1 µM) 88.2% | viability, T/C (second compound 0.00316 µM, first compound 3.16 µM) 94.8% | viability, T/C (second compound 0.00316 µM, first compound 10 µM) 83.5% | viability, T/C (second compound 0.01 µM, first compound 0.0316 µM) 74.9% | viability, T/C (second compound 0.01 µM, first compound 0.1 µM) 71.5% | viability, T/C (second compound 0.01 µM, first compound 0.316 µM) 79.6% | viability, T/C (second compound 0.01 µM, first compound 1 µM) 72.8% | viability, T/C (second compound 0.01 µM, first compound 3.16 µM) 78.8% | viability, T/C (second compound 0.01 µM, first compound 10 µM) 72.3% | viability, T/C [1] 59.5% | viability, T/C [2] 68.3% | viability, T/C [3] 61% | viability, T/C [4] 61.4% | viability, T/C [5] 67.2% | viability, T/C [6] 57.4% | viability, T/C [7] 50.2% | viability, T/C [8] 45.5% | viability, T/C [9] 45.1% | viability, T/C [10] 44.3% | viability, T/C [11] 42.4% | viability, T/C [12] 40.3% | viability, T/C [13] 34.6% | viability, T/C [14] 32.5% | viability, T/C [15] 31.8% | viability, T/C [16] 33% | viability, T/C [17] 28.9% | viability, T/C [18] 28.6% | viability, T/C [19] 34.3% | viability, T/C [20] 27.8% | viability, T/C [21] 26.7% | viability, T/C [22] 29.6% | viability, T/C [23] 21.4% | viability, T/C [24] 24.2%

CC1(C)CCC(CN2CCN(c3ccc(C(=O)NS(=O)(=O)c4ccc(NCC5CCOCC5)c([N+](=O)[O-])c4)c(Oc4cnc5[nH]ccc5c4)c3)CC2)=C(c2ccc(Cl)cc2)C1 + Cc1nc(NC(=O)N2CCCC2C(N)=O)sc1-c1ccnc(C(C)(C)C(F)(F)F)c1
< 31.6 nM: IC50 (second compound 1 µM) | IC50 (second compound 3.16 µM) | IC50 (second compound 10 µM)
inactive: viability, T/C [1] 84.2% | viability, T/C [2] 90.8% | viability, T/C [3] 86.1% | viability, T/C [4] 91.3% | viability, T/C [5] 76% | viability, T/C [6] 30.9% | viability, T/C [7] 73% | viability, T/C [8] 71.8% | viability, T/C [9] 74.9% | viability, T/C [10] 75.5% | viability, T/C [11] 67.4% | viability, T/C [12] 25.7% | viability, T/C [13] 58.3% | viability, T/C [14] 58.6% | viability, T/C [15] 56.2% | viability, T/C [16] 53.6% | viability, T/C [17] 49.5% | viability, T/C [18] 25.6% | viability, T/C [19] 48.9% | viability, T/C [20] 41% | viability, T/C [21] 39% | viability, T/C [22] 39.5% | viability, T/C [23] 39.2% | viability, T/C [24] 11.1% | viability, T/C (second compound 3.16 µM, first compound 0.0316 µM) 25% | viability, T/C (second compound 3.16 µM, first compound 0.1 µM) 28.1% | viability, T/C (second compound 3.16 µM, first compound 0.316 µM) 27.2% | viability, T/C (second compound 3.16 µM, first compound 1 µM) 26.2% | viability, T/C (second compound 3.16 µM, first compound 3.16 µM) 24.5% | viability, T/C (second compound 3.16 µM, first compound 10 µM) 8.65% | viability, T/C (second compound 10 µM, first compound 0.0316 µM) 14.8% | viability, T/C (second compound 10 µM, first compound 0.1 µM) 10.8%
active: viability, T/C (second compound 10 µM, first compound 0.316 µM) 7.16% | viability, T/C (second compound 10 µM, first compound 1 µM) 6.93% | viability, T/C (second compound 10 µM, first compound 3.16 µM) 5.25% | viability, T/C (second compound 10 µM, first compound 10 µM) 2.97%
2490 nM: IC50 (second compound 0.316 µM)
5140 nM: IC50 (second compound 0.1 µM)
6130 nM: IC50 (second compound 0.0316 µM)
